In publication PMC7794376 (Nature Communications, 2021):
Converted amounts (≈) assume the structure as drawn. “And” between values parts separate entries of the source, which are not always exact repeats. Equal values may be shown once. Read-outs that look alike come from different tables or passages of the source.

Columns and labels:
MtbCoaBC [1] = molecular target: T1, MtbCoaBC (Mycobacterium tuberculosis, UniProt P9WNZ1); experiment: biochemical; type: biochemical; conditions: for activity at 0.015625 µM / activity at 0.03125 µM / activity at 0.0625 µM / activity at 0.25 µM / activity at 0.5 µM: relative to average DMSO CT; for Activity R1 / Activity R3: slope of absorbance at 360 nm vs time (s)
M. tuberculosis H37Rv = experiment: MIC determination in different media; type: cell-based; conditions: Mycobacterium tuberculosis, read-out: Minimum inhibitory concentration (MIC)
MtbCoaBC [2] = molecular target: T1, MtbCoaBC; experiment: CMP quantification assay (UPLC), second half of CoaB reaction, variable L-cysteine; type: biochemical; conditions: for uM CMP/uM protein.s-1 (rate of CMP formation): MtbCoaBC 32nM, replicates R1-R3
MtbCoaBC [3] = molecular target: T1, MtbCoaBC; experiment: High-throughput end-point pyrophosphate quantification assay (Biomol Green); type: biochemical; conditions: MtbCoaB activity; end-point, 2 µM CTP, 40 µM L-cysteine, 30 µM PPA; read-out: IC50 biomol green assay
[4] = inhibitor concentration 1 (log 0), unit not shown, three replicates
[5] = inhibitor concentration 2 (log 0.30103), unit not shown, three replicates

T1 sequence (P9WNZ1 whole entry): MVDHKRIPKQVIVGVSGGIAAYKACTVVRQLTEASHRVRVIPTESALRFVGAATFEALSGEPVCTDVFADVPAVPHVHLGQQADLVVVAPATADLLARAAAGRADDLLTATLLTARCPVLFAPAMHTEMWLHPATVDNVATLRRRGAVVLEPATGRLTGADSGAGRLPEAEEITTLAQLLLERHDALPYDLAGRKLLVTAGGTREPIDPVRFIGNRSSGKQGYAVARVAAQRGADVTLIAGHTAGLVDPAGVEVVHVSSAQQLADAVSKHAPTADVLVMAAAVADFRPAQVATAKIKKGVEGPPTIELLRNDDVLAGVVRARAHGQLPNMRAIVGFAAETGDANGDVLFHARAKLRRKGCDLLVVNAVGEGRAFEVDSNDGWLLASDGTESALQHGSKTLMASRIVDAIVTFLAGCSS

## O=c1cc(-c2ccc(O)c(O)c2)oc2cc(O)c(O)cc12 [compound 2b]
MtbCoaBC [1]; 0.015625 uM 2b, replicate R1, read-out: Activity % R1
  activity at 0.015625 µM: 91.9%
MtbCoaBC [1]; 0.015625 uM 2b, replicate R1
  Activity R1: 0.0001714
MtbCoaBC [1]; 0.015625 uM 2b, replicate R2, read-out: Inhibition % R2
  inhibition at 0.015625 µM: 5.01%
MtbCoaBC [1]; 0.015625 uM 2b, replicate R2, read-out: Activity % R2
  activity at 0.015625 µM: 95%
MtbCoaBC [1]; 0.015625 uM 2b, replicate R3, read-out: Inhibition % R3
  inhibition at 0.015625 µM: 10.3%
MtbCoaBC [1]; 0.015625 uM 2b, replicate R3, read-out: Activity % R3
  activity at 0.015625 µM: 89.7%
MtbCoaBC [1]; 0.015625 uM 2b, replicate R3
  Activity R3: 0.0001672
MtbCoaBC [1]; 0.03125 uM 2b, replicate R1, read-out: Inhibition % R1
  inhibition at 0.03125 µM: 20.2%
MtbCoaBC [1]; 0.03125 uM 2b, replicate R1, read-out: Activity % R1
  activity at 0.03125 µM: 79.8%
MtbCoaBC [1]; 0.03125 uM 2b, replicate R1
  Activity R1: 0.0001487
MtbCoaBC [1]; 0.03125 uM 2b, replicate R2, read-out: Inhibition % R2
  inhibition at 0.03125 µM: 19.2%
MtbCoaBC [1]; 0.03125 uM 2b, replicate R2, read-out: Activity % R2
  activity at 0.03125 µM: 80.8%
MtbCoaBC [1]; 0.03125 uM 2b, replicate R3, read-out: Inhibition % R3
  inhibition at 0.03125 µM: 19.4%
MtbCoaBC [1]; 0.03125 uM 2b, replicate R3, read-out: Activity % R3
  activity at 0.03125 µM: 80.6%
MtbCoaBC [1]; 0.03125 uM 2b, replicate R3
  Activity R3: 0.0001503
MtbCoaBC [1]; 0.0625 uM 2b, replicate R1, read-out: Inhibition % R1
  inhibition at 0.0625 µM: 37.9%
MtbCoaBC [1]; 0.0625 uM 2b, replicate R1, read-out: Activity % R1
  activity at 0.0625 µM: 62.1%
MtbCoaBC [1]; 0.0625 uM 2b, replicate R1
  Activity R1: 0.0001157
MtbCoaBC [1]; 0.0625 uM 2b, replicate R2, read-out: Inhibition % R2
  inhibition at 0.0625 µM: 38.9%
MtbCoaBC [1]; 0.0625 uM 2b, replicate R2, read-out: Activity % R2
  activity at 0.0625 µM: 61.2%
MtbCoaBC [1]; 0.0625 uM 2b, replicate R3, read-out: Inhibition % R3
  inhibition at 0.0625 µM: 38%
MtbCoaBC [1]; 0.0625 uM 2b, replicate R3, read-out: Activity % R3
  activity at 0.0625 µM: 62%
MtbCoaBC [1]; 0.0625 uM 2b, replicate R3
  Activity R3: 0.0001157
MtbCoaBC [1]; 0.25 uM 2b, replicate R1, read-out: Inhibition % R1
  inhibition at 0.25 µM: 95%
MtbCoaBC [1]; 0.25 uM 2b, replicate R1, read-out: Activity % R1
  activity at 0.25 µM: 4.96%
MtbCoaBC [1]; 0.25 uM 2b, replicate R1
  Activity R1: 0.000009249
MtbCoaBC [1]; 0.25 uM 2b, replicate R2, read-out: Activity % R2
  activity at 0.25 µM: 4.35%
MtbCoaBC [1]; 0.25 uM 2b, replicate R3, read-out: Inhibition % R3
  inhibition at 0.25 µM: 95.6%
MtbCoaBC [1]; 0.25 uM 2b, replicate R3, read-out: Activity % R3
  activity at 0.25 µM: 4.39%
MtbCoaBC [1]; 0.25 uM 2b, replicate R3
  Activity R3: 0.000008176
MtbCoaBC [1]; 0.5 uM 2b, replicate R1, read-out: Inhibition % R1
  inhibition at 0.5 µM: 97.8%
MtbCoaBC [1]; 0.5 uM 2b, replicate R1, read-out: Activity % R1
  activity at 0.5 µM: 2.19%
MtbCoaBC [1]; 0.5 uM 2b, replicate R1
  Activity R1: 0.000004090
MtbCoaBC [1]; 0.5 uM 2b, replicate R2, read-out: Inhibition % R2
  inhibition at 0.5 µM: 99%
MtbCoaBC [1]; 0.5 uM 2b, replicate R2, read-out: Activity % R2
  activity at 0.5 µM: 1%
MtbCoaBC [1]; 0.5 uM 2b, replicate R3, read-out: Inhibition % R3
  inhibition at 0.5 µM: 97%
MtbCoaBC [1]; 0.5 uM 2b, replicate R3, read-out: Activity % R3
  activity at 0.5 µM: 3%
MtbCoaBC [1]; 0.5 uM 2b, replicate R3
  Activity R3: 0.000005588
MtbCoaBC [1]; [4]
  inhibition, IC50 MtbCoaBC 2b: 99.01
  reaction rate (slope of absorbance at 360 nm vs time), IC50 MtbCoaBC 2b: 0.000001846 and 0.000001860 and -0.000003443
  remaining activity relative to control, IC50 MtbCoaBC 2b: 0.9903 and 0.9976 and -1.847
MtbCoaBC [1]; [5]
  reaction rate (slope of absorbance at 360 nm vs time), IC50 MtbCoaBC 2b: -0.000001738 and -0.000001919 and -0.000000593
  remaining activity relative to control, IC50 MtbCoaBC 2b: -0.932 and -1.029 and -0.318
MtbCoaBC [1]; read-out: IC50 EnzChek MtbCoaBC
  IC50: 80 ± 10 nM
MtbCoaBC [1]; read-out: Inhibition % R2
  inhibition at 0.25 µM: 95.7%
M. tuberculosis H37Rv; 7H9/ADC/Glycerol
  MIC: > 250 µM
M. tuberculosis H37Rv; 7H9/Cholesterol/Tyloxapol
  MIC: > 250 µM
M. tuberculosis H37Rv; GAST/Fe
  MIC: 50 µM (≈ 14.3 µg/mL)
MtbCoaBC [2]; 0.03125uM 2b, 31.25 uM cysteine
  uM CMP/uM protein.s-1 (rate of CMP formation): 0.1688 uM CMP/uM protein.s-1 and 0.1774 uM CMP/uM protein.s-1 and 0.1722 uM CMP/uM protein.s-1
MtbCoaBC [2]; 0.03125uM 2b, 62.5 uM cysteine
  uM CMP/uM protein.s-1 (rate of CMP formation): 0.2177 uM CMP/uM protein.s-1 and 0.2245 uM CMP/uM protein.s-1 and 0.2185 uM CMP/uM protein.s-1
MtbCoaBC [2]; 0.03125uM 2b, 250 uM cysteine
  uM CMP/uM protein.s-1 (rate of CMP formation): 0.2696 uM CMP/uM protein.s-1 and 0.2689 uM CMP/uM protein.s-1 and 0.2761 uM CMP/uM protein.s-1
MtbCoaBC [2]; 0.03125uM 2b, 500 uM cysteine
  uM CMP/uM protein.s-1 (rate of CMP formation): 0.3036 uM CMP/uM protein.s-1 and 0.2988 uM CMP/uM protein.s-1 and 0.3158 uM CMP/uM protein.s-1
MtbCoaBC [2]; 0.0625uM 2b, 31.25 uM cysteine
  uM CMP/uM protein.s-1 (rate of CMP formation): 0.139 uM CMP/uM protein.s-1 and 0.1432 uM CMP/uM protein.s-1 and 0.1461 uM CMP/uM protein.s-1
MtbCoaBC [2]; 0.0625uM 2b, 62.5 uM cysteine
  uM CMP/uM protein.s-1 (rate of CMP formation): 0.1762 uM CMP/uM protein.s-1 and 0.1605 uM CMP/uM protein.s-1 and 0.1802 uM CMP/uM protein.s-1
MtbCoaBC [2]; 0.0625uM 2b, 250 uM cysteine
  uM CMP/uM protein.s-1 (rate of CMP formation): 0.2128 uM CMP/uM protein.s-1 and 0.2019 uM CMP/uM protein.s-1 and 0.2135 uM CMP/uM protein.s-1
MtbCoaBC [2]; 0.0625uM 2b, 500 uM cysteine
  uM CMP/uM protein.s-1 (rate of CMP formation): 0.2223 uM CMP/uM protein.s-1 and 0.2126 uM CMP/uM protein.s-1 and 0.2324 uM CMP/uM protein.s-1
MtbCoaBC [2]; relative to L-cysteine, in words
  mode of inhibition: uncompetitive inhibition
MtbCoaBC [3]
  IC50: 100 nM
